Source: patent publication US20060247156A1, “Use of neuropeptides for ligament, cartilage, and bone healing” (priority 2004, published 2006)
Where “and” joins values, the source holds several entries; their conditions need not be identical. Equal entries are not always repeated. Entries after “also recorded” stand apart in the source; their conditions may differ.

Legend:
[1] = tested on: intact and healing MCLs; experiment: Intact and healing MCL after in vivo capsaicin: mechanical testing, healing, histomorphology; set-up: species or system rat
Procedure: In Group 2, control rats (n=6) were injected with an equal volume of 0.9% saline. […] These rats were also divided into two groups. […] After 3 days of treatment, both groups underwent a surgical rupture of one MCL. Contralateral MCLs were used as sham controls. All rats were maintained in their normal cage environment for 10 days. Then, they were sacrificed as noted above. Femur-MCL-tibia (FMT) complexes were then harvested and tested as above.
Injections were made into a site between the scapulae. […] Bupivicaine was also administered subcutaneously at the site of the capsaicin injection. […] Into Group 2 (n=6 animals) and Group 4 (n=9 animals), a similar volume of sterile saline was injected via the same method. All other medications were given as in the treated groups. There were no signs of infection, discomfort, or unusual behavior in the treated rats. […] Contralateral legs were used as sham controls.
Mechanical Testing: Mechanical testing was performed as described in the previous examples. Briefly, animal hind limbs from all groups (n=4 Group 1; n=4 Group 2; n=4 Group 3; n=4 Group 4) were disarticulated at the hip joint and stored at −80° C. until testing. On the day of testing, MCLs including intact femoral and tibial bone sections were excised for ex vivo testing. Ligament thickness and width was measured optically, and MCL area was estimated with elliptical geometry. For strain measurements, optical markers were placed onto the ligament tissue near the insertion sites. A small preload of 0.1N was applied to the ligaments in order to obtain a uniform starting point. The ligaments were then preconditioned to 1% strain for 10 cycles. After preconditioning, ligaments were pulled to failure at a rate of ˜10% per second. Tissue displacement was obtained using video dimensional analysis using equations (1) and (2) infra. The mechanical properties that were examined in this study were maximum force, ultimate stress, strain at failure, elastic modulus, and area. Statistical analysis was performed using an unpaired t-test (p=0.05) to analyze differences between the control and treatment group.
(§1) Ligaments were immediately fixed in formalin fixative for three days at room temperature. Specimens were embedded in paraffin, sectioned (6 μm), mounted on slides, and stained with hematoxylin and eosin (H&E).

[2] = tested on: MCL neuropeptide concentration (SP, CGRP, NPY, VIP); experiment: Neuropeptides in MCL after capsaicin (RIA, immunofluorescence); format: in vivo, rat
Procedure: Injections were made into a site between the scapulae. […] Into Group 2 (n=6 animals) and Group 4 (n=9 animals), a similar volume of sterile saline was injected via the same method. All other medications were given as in the treated groups. […] Contralateral legs were used as sham controls.
Neuropeptide Radioimmunoassay: Four MCLs from all groups were used for quantification of neuropeptide concentrations via RIA. MCLs were homogenized using a mortar and pestle.
Each ligament was then incubated in two […] appropriately tagged (AMCA or Rhodamine; Chemicon, Temecula, Calif.) secondary antibodies.

[3] = tested on: MCL; experiment: MCL organ culture with capsaicin, mechanical testing; set-up: species or system rat
[4] = tested on: MCL; details: cited from earlier work
[5] = tested on: healing MCL; experiment: Local neuropeptide delivery to normally innervated healing MCL: mechanical testing, histomorphology; format: in vivo, rat
Procedure: Animal Model and Surgery: Forty female Wistar rats (200-250 g) were divided into five groups.
All rats underwent bilateral MCL rupture. Neuropeptides were then delivered ruptured MCLs unilaterally. Neuropeptide infused mini-osmotic pumps (Alzet Corp.) were implanted subcutaneously into the back of each rat. A small catheter running from the pump was run to an intramuscular space above the MCL and was secured.
Mechanical Testing: Mechanical testing was performed as described in Chapter 2. Briefly, animal hind limbs from all groups (n=5 for all groups) were disarticulated at the hip joint and stored at −80° C. until testing. On the day of testing, MCLs including intact femoral and tibial bone sections were excised for ex vivo testing. Ligament thickness and width was measured optically, and MCL area was estimated with elliptical geometry. For strain measurements, optical markers were placed onto the ligament tissue near the insertion sites. A small preload of 0.1N was applied to the ligaments in order to obtain a uniform starting point. The ligaments were then preconditioned to 1% strain for 10 cycles. After preconditioning, ligaments were pulled to failure at a rate of 10% per second.
Tissue displacement was obtained using video dimensional analysis using equations (1) and (2) supra. The mechanical properties that were examined in this study were maximum force, ultimate stress, strain at failure, elastic modulus, and area. Statistical analysis was performed using paired ttests to compare each treated MCL to its contralateral control (alpha=0.05).
as §1

[6] = tested on: bovine articular chondrocytes; experiment: Bovine chondrocytes proliferation assay (CellTiter 96 AQueous One); format: cell-based; details: CGRP 100 pg/ml, NPY 50 ng/ml, SP 500 pg/ml, VIP 1 ng/ml
Procedure: (§2) Cartilage chunks were then digested at 37° C. in DMEM containing 0.05% hyaluronidase for 30 minutes, followed by 0.05% collagenase digestion overnight. The digests were filtered through 40-micron nylon mesh and centrifuged at 600×g for 20 minutes. The cell pellets were then resuspended in DMEM and counted using a hemacytometer.
(§3) Cells were plated at 1×10^5 cells/well in 12-well plates (n=9) for proteoglycan assays and at 2×10^4 cells/well in 96-well plates (n=16) for proliferation assays. The culture volumes were 1 ml/well in 12-well plates and 100 μl/well in 96-well plates.
(§4) The plates were incubated at 37° C. in a humidified CO2 incubator for 3 days to allow the cells to recover from the harvesting procedure.
(§5) On Day 3 of treatment, 20 μl of CellTiter 96® AQueous One Solution Cell Proliferation Assay (Promega Corporation, Madison, Wis.) was added to each well of the 96-well cultures for 60 minutes, and cells in the 12-well plates were digested with 0.125 units of papain/well overnight. After the 60-minute incubation, the absorbance of the color generated by the cells in the 96-well plates was measured at wavelength 490 nm.

[7] = tested on: Bovine nucleus pulposus cells; experiment: Bovine nucleus pulposus (intervertebral disc) cell proliferation; format: cell-based; details: CGRP 10 ng/ml, NPY (mcg/ml, SP 5 mcg/ml); day 1, day 2, day 3
Procedure: Bovine calf spines and femoral condyles were obtained from a slaughterhouse and freshly transported to the laboratory. Nucleus pulposus tissue was carefully dissected, avoiding annular and endplate cartilage tissues, from each disc. Articular cartilage from femoral condyles was dissected in the same manner. […] Cells were harvested by overnight digestion with hyaluronidase and collagenase, followed by filtration. Cells were plated at a density of 1×10^5 cells/ml and incubated at 37° C. in 5% CO2 and 95% air in the presence of each neuropeptide or media only (control). At various time points in growth, cells were collected for proliferation and glycosaminoglycan (GAG) production assays. Varying concentrations of NPs were examined.
Well established colorimetric and luminescent assays (CellTiter 96® AQueous Non-radioactive Cell Proliferation and CellTiter-Glo® Luminescent Cell Viability Assays, Promega, Madison, Wis.) were used to quantify the effect of each NP on cell proliferation. In addition, corresponding cell cultures during growth were digested with papain to release glycosaminoglycans (GAGs). Dimethyl methylene blue (DMMB) colorimetric assays were used to quantify the amount of GAGs in each culture.
Multiple samples for test and control groups were performed simultaneously. Statistical analyses using one way analysis of variance (ANOVA) with large degrees of freedom (n=12 for GAG assays; n=24 for proliferation assays) were performed to establish the significance of differences between test groups and control groups for each day of growth in culture.
The effect of neuropeptides on intervertebral disc cell proliferation was examined in order to elucidate further the pathophysiology of degenerative disc disease. Bovine nucleus pulposus cells were incubated with the same neuropeptides.

[8] = tested on: bovine articular chondrocytes; experiment: Bovine chondrocytes glycosaminoglycan assay (DMMB); format: cell-based; details: NPY 50 ng/ml; Day 3 of treatment; individual wells
Procedure: as §2, §3, §4, §5
Following papain digestion of the cultures in 12-well plates, the amount of glycosaminoglycan (representative of proteoglycans) in each well was measured using the dimethylmethylene blue (DMMB) dye-binding assay. The results were statistically analyzed and plotted.

[9] = tested on: ruptured MCL of a surgical sympathectomy (SS) rat; experiment: Local neuropeptide delivery to ruptured MCL of surgical sympathectomy (SS) rats: mechanical testing, histomorphology; format: in vivo
From the text: Surgical Procedure: Thirteen female Wistar rats (306 g to 339 g) were divided into two groups: surgical sympathectomy (SS) or sham control. All rats were anesthetized with isofluorane as described in Example 1. A transperitoneal approach was used. The lower abdomen was shaved and prepared for surgery. A skin incision approximately 25 mm long was made. Fascia and abdominal muscle were incised. Abdominal organs were displaced. With the aid of a dissecting microscope, fascia surrounding the deep muscle tissue was separated (with minimal disruption to the muscle tissue) to expose the post-ganglionic sympathetic nerves. The L1-4 nerves were isolated and transected (with removal of a 5 mm segment of the nerves) in the surgical sympathectomy group only. In both groups, the deep muscle tissue was returned to its initial position and abdominal organs were replaced. Abdominal muscles and skin were closed in two layers with a 3-0 or 4-0 continuous dexon suture. Rats from each group (n=4 SS; n=3 controls) then underwent a complete surgical rupture of the MCL to one knee. The contra-lateral knee underwent sham surgery. […] Two weeks post-surgery, rats were sacrificed using an overdose of pentobarbitone (150 mg/kg).
Local delivery of NPs and NP inhibitors is important to identify the specific roles of individual NPs on healing tissues. An animal model for the local delivery of NPs has been developed and is presented in this Example. Briefly, NP infused mini-osmotic pumps were implanted subcutaneously into the back of rats. A small catheter running from the pump to an intramuscular space above the MCL was secured to the rat.
To test whether autonomic NPs improve healing in SS-ruptured MCLs, three female Wistar rats (193 g to 204 g) were given VIP locally to the MCL. Vasoactive intestinal peptide (75 pg/μl) was infused into a mini-osmotic pump and was delivered to a ruptured MCL of a surgical sympathectomy (SS) rat (see surgical procedure above). Within minutes of surgical intervention, all rats recovered and had normal movement and behavior (grooming, feeding, etc.). […] The results are presented graphically in FIG. 6.
Animal Model and Surgery: Thirty-seven female Wistar rats (199-298 g) were divided into five groups. […] Rats that were designated to receive SP or CGRP underwent bilateral femoral nerve transection (see previous examples). Rats that were designated to receive NPY, VIP, or a combination of NPY and VIP underwent bilateral surgical sympathectomy. Following surgical nerve transection, each rat also underwent bilateral MCL rupture. Neuropeptides were then delivered ruptured MCLs unilaterally. Neuropeptide infused mini-osmotic pumps (Alzet Corp.) were implanted subcutaneously into the back of each rat. A small catheter running from the pump was run to an intramuscular space above the MCL and was secured. To ensure that neuropeptides are delivered directly to the MCL, rhodamine labeled SP was delivered via a catheter to the MCL (n=2 rats).
Within minutes of surgical intervention, all rats recovered and had normal movement and behavior (grooming, feeding, etc.). To test whether autonomic NPs improve healing in SS ruptured MCLs, seven rats were given VIP, seven rats were given NPY, and seven rats were given a combination of VIP and NPY. […]
Mechanical Testing: Mechanical testing was performed as described in the preceding examples. Briefly, animal hind limbs from all groups (n=4 for all groups) were disarticulated at the hip joint and stored at −80° C. until testing. On the day of testing, MCLs including intact femoral and tibial bone sections were excised for ex vivo testing. Ligament thickness and width was measured optically, and MCL area was estimated with elliptical geometry. For strain measurements, optical markers were placed onto the ligament tissue near the insertion sites. […]

[10] = second study, Group 3: capsaicin 50 mg/kg/day x3 days, ruptured MCL, healing
[11] = Group 3: ruptured MCL, capsaicin 50 mg/kg/day for three days, two weeks of healing
[12] = Example 7: normally innervated rats, bilateral MCL rupture, mini-osmotic pump (SP 75, CGRP 10, NPY 65, VIP 100 pg/100 μl), two weeks of healing

COc1cc(CNC(=O)CCCC/C=C/C(C)C)ccc1O [capsaicin]
histomorphology (H&E) of healing MCL ([1]; capsaicin treated, two weeks of healing): hypercellular and disorganized
healing of MCL and skin wounds (in words) ([1]; capsaicin-treated rats with MCL rupture): one MCL failed to heal; also recorded: healed poorly
ultimate stress of the ruptured ligament ([1]; first study: capsaicin 50 mg/kg, MCL rupture after 3 days of treatment, n=3): 4.6 MPa
ultimate stress of intact MCLs ([1]; first study: capsaicin 50 mg/kg, intact MCL, 10 days): substantially reduced
abnormalities in movement, body weight, or behavior ([1]; following initial recovery from capsaicin injection): No abnormalities
failure force, ultimate stress, failure strain, area, and elastic modulus of intact MCL ([1]; second study, Group 1 vs Group 2, intact MCL): not significantly changed
failure force [1, 10]: 4.5±2.7 N
ultimate stress [1, 10]: 2.7±1.9 MPa
CGRP concentration in MCL (RIA) ([2]; Group 1: intact MCL, capsaicin 50 mg/kg/day s.c. for three days, 10 days after last injection): 0.04 pmol/g
CGRP concentration in MCL (RIA) [2, 11]: 0.042 pmol/g
NPY concentration in MCL (RIA) [2, 11]: 3.09 pmol/g
SP concentration in MCL (RIA) [2, 11]: 0.09 pmol/g
VIP concentration in MCL (RIA) [2, 11]: 1.07 pmol/g
ultimate stress ([3]; organ culture 10 days with capsaicin in media): 66.0±4.7 MPa
ultimate force ([3]; organ culture with capsaicin-supplemented media): no changes

insulin-like growth factor-1
healed strength relative to intact ligament ([4]; Provenzano et al., following 30 days of delivery): 66%

neuropeptide Y [NPY]
histomorphology (H&E) of healing MCL ([5]; Example 7, two weeks of healing): less of an effect on tissue alignment
failure force [5, 12]: 7.7±1.1 N
ultimate stress [5, 12]: 5.6±2.2 MPa
proliferation of articular chondrocytes compared to controls (in words) [6]: stimulate proliferation
disc cell proliferation compared to controls [7]: stimulate disc cell proliferation
Glycosaminoglycan Assay [8]: 7.783 μg/dish and 9.327 μg/dish and 6.2383 μg/dish and 8.055 μg/dish and 7.964 μg/dish and 5.148 μg/dish and 5.784 μg/dish and 7.874 μg/dish and 8.328 μg/dish
failure force ([9]; Example 6: SS rats, bilateral MCL rupture, mini-osmotic pump (NPY 65 pg/100 μl; VIP 100 pg/100 μl; or both), two weeks of healing): 12.2±0.9 N
histomorphology (H&E) of healing MCL ([9]; SS rats, VIP or NPY, two weeks): more aligned
healing response of MCLs relative to intact controls ([9]; neuropathic ruptured MCL, two weeks of healing): 70%

platelet-derived growth factor [PDGF]
healed MCL strength relative to intact ligament strength ([4]; Woo et al., after 6 weeks of healing): 50%
